ChEMBL document CHEMBL5325470, “Design, synthesis and mechanism studies of dual EZH2/BRD4 inhibitors for cancer therapy” (Bioorg Med Chem, 2023)
The source made the active and inactive calls. The rule behind the calls is not given here.

Key:
[1] = target: T1, Bromodomain-containing protein 4 (Homo sapiens, UniProt O60885); assay: Inhibition of BRD4 in human HCT-116 cells assessed as reduction in c-Myc level at 2 to 8 uM incubated for 48 hrs by Western blotting analysis; format: cell-based; settings: dose 2-8 µM
A549 [2] = assay: Antiproliferative activity against human A549 cells incubated for 72 hrs by MTT assay; format: functional, cell-based; settings: A549, 72 h
HCT-116 [3] = assay: Induction of cell cycle arrest in human HCT-116 cells assessed as accumulation of cells at G0/G1 phase at 2 to 8 uM incubated for 48 hrs by RNAase-A and PI staining based flow cytometry analysis; format: functional; settings: dose 2-8 µM
A549 [4] = assay: Induction of apoptosis in human A549 cells assessed as […] in Bax protein expression at 2 to 8 uM incubated for 48 hrs by Western blotting analysis; format: functional, cell-based; settings: dose 2-8 µM
MDA-MB-231 [5] = assay: Inhibition of PRC2 in human MDA-MB-231 cells assessed as reduction in H3K27me3 level at 2 to 8 uM incubated for 48 hrs by Western blotting analysis; format: cell-based; settings: dose 2-8 µM
HCT-116 [6] = assay: Induction of apoptosis in human HCT-116 cells at 2 to 8 uM incubated for 48 hrs by Annexin V-PE/7-AAD staining based flow cytometry analysis; format: functional, cell-based; settings: dose 2-8 µM
[7] = target: T2, Histone-lysine N-methyltransferase EZH2 (Homo sapiens, UniProt Q15910); assay: Inhibition of EZH2 in human HCT-116 cells assessed as decrease in H3K27ac level at 12 uM incubated for 48 hrs by Western blotting analysis; format: cell-based
Target sequence in this assay (Q15910 whole entry, looked up): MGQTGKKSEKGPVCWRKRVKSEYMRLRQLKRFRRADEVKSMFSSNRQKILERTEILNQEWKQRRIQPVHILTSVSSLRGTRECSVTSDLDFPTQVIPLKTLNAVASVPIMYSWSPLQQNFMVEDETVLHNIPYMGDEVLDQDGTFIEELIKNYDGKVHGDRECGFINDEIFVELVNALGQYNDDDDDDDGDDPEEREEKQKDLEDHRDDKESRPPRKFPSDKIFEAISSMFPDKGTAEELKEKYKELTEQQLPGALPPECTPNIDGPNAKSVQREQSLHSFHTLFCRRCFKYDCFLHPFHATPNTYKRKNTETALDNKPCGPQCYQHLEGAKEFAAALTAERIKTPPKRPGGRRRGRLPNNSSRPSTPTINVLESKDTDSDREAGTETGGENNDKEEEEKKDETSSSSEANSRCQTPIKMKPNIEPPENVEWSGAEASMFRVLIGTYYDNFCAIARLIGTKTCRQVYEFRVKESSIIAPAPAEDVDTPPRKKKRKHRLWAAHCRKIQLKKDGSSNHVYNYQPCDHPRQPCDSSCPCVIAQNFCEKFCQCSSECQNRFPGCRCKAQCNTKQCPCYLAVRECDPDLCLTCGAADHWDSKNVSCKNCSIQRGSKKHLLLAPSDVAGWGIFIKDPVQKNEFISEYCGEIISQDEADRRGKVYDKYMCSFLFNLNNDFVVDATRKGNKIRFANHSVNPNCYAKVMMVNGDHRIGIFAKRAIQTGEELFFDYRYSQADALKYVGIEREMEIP

[8] = target: T1, Bromodomain-containing protein 4; assay: Inhibition of BRD4 BD1 (unknown origin) incubated for 15 mins by TR-FRET method
[9] = target: T2, Histone-lysine N-methyltransferase EZH2; assay: Inhibition of EZH2 (unknown origin)
Target sequence in this assay (Q15910 whole entry): as the sequence (Q15910 whole entry, looked up) above

[10] = target: T2, Histone-lysine N-methyltransferase EZH2; assay: Inhibition of EZH2 in human A549 cells assessed as decrease in H3K27ac level at 2 to 8 uM incubated for 48 hrs by Western blotting analysis; format: cell-based; settings: dose 2-8 µM
Target sequence in this assay (Q15910 whole entry, looked up): as above

[11] = target: T2, Histone-lysine N-methyltransferase EZH2; assay: Inhibition of EZH2 in human A549 cells assessed as decrease in H3K27ac level at 18 uM incubated for 48 hrs by Western blotting analysis; format: cell-based
Target sequence in this assay (Q15910 whole entry, looked up): as above

[12] = target: T2, Histone-lysine N-methyltransferase EZH2; assay: Inhibition of EZH2 in human HCT-116 cells assessed as decrease in H3K27ac level at 2 to 8 uM incubated for 48 hrs by Western blotting analysis; format: cell-based; settings: dose 2-8 µM
Target sequence in this assay (Q15910 whole entry, looked up): as above

[13] = target: T1, Bromodomain-containing protein 4; assay: Inhibition of BRD4 in human A549 cells assessed as increase in p21 level at 2 to 8 uM incubated for 48 hrs by Western blotting analysis; format: cell-based; settings: dose 2-8 µM
HCT-116 [14] = assay: Inhibition of PRC2 in human HCT-116 cells assessed as reduction in H3K27me3 level at 2 to 8 uM incubated for 48 hrs by Western blotting analysis; format: cell-based; settings: dose 2-8 µM
[15] = target: T1, Bromodomain-containing protein 4; assay: Inhibition of BRD4 in human HCT-116 cells assessed as increase in p21 level at 2 to 8 uM incubated for 48 hrs by Western blotting analysis; format: cell-based; settings: dose 2-8 µM
HCT-116 [16] = assay: Antiproliferative activity against human HCT-116 cells assessed as reduction in number of colonies incubated for 48 hrs with replacement of normal media every day for 14 days; format: functional, cell-based; settings: dose 2-8 µM
Cell membrane = assay: Induction of mitochondrial membrane potential loss in human HCT-116 cells assessed as decrease in red fluorescence incubated for 48 hrs by flow cytometry analysis; settings: Mitochondria, dose 2-8 µM
[17] = target: T2, Histone-lysine N-methyltransferase EZH2; assay: Inhibition of EZH2 in human MDA-MB-231 cells assessed as decrease in H3K27ac level at 2 to 8 uM incubated for 48 hrs by Western blotting analysis; format: cell-based; settings: dose 2-8 µM
Target sequence in this assay (Q15910 whole entry, looked up): as above

MDA-MB-231 [18] = assay: Antiproliferative activity against human MDA-MB-231 cells incubated for 72 hrs by MTT assay; format: functional, cell-based; settings: MDA-MB-231, 72 h
[19] = target: T1, Bromodomain-containing protein 4; assay: Inhibition of BRD4 in human MDA-MB-231 cells assessed as increase in p21 level at 2 to 8 uM incubated for 48 hrs by Western blotting analysis; format: cell-based; settings: dose 2-8 µM
[20] = Binding affinity to recombinant PRC2 complex (unknown origin) incubated for 3 hrs in presence of SAM; design: species or system Homo sapiens
[21] = target: T1, Bromodomain-containing protein 4; assay: Inhibition of BRD4 in human MDA-MB-231 cells assessed as reduction in c-Myc level at 2 to 8 uM incubated for 48 hrs by Western blotting analysis; format: cell-based; settings: dose 2-8 µM
A549 [22] = assay: Inhibition of PRC2 in human A549 cells assessed as reduction in H3K27me3 level at 2 to 8 uM incubated for 48 hrs by Western blotting analysis; format: cell-based; settings: dose 2-8 µM
[23] = target: T2, Histone-lysine N-methyltransferase EZH2; assay: Inhibition of EZH2 in human MDA-MB-231 cells assessed as decrease in H3K27ac level at 12 uM incubated for 48 hrs by Western blotting analysis; format: cell-based
Target sequence in this assay (Q15910 whole entry, looked up): as above

[24] = target: T1, Bromodomain-containing protein 4; assay: Inhibition of BRD4 in human A549 cells assessed as reduction in c-Myc level at 2 to 8 uM incubated for 48 hrs by Western blotting analysis; format: cell-based; settings: dose 2-8 µM
HCT-116 [25] = assay: Antiproliferative activity against human HCT-116 cells incubated for 72 hrs by MTT assay; format: functional, cell-based; settings: HCT-116, 72 h
A549 [26] = assay: Induction of apoptosis in human A549 cells assessed as reduction in Bcl-2 protein expression at 2 to 8 uM incubated for 48 hrs by Western blotting analysis; format: functional, cell-based; settings: dose 2-8 µM
BT-549 = assay: Antiproliferative activity against human BT-549 cells incubated for 72 hrs by MTT assay; format: functional, cell-based; settings: BT-549, 72 h

Cc1cc(C)c(CNC(=O)c2cc(NCCCCCNC(=O)C[C@@H]3N=C(c4ccc(Cl)cc4)c4c(sc(C)c4C)-n4c(C)nnc43)cc3c2cnn3C(C)C)c(=O)[nH]1
inhibition [1]: Active | IC50 (A549 [2]): 4.63 µM | Activity (HCT-116 [3]): Active | Activity (A549 [4]): Active | inhibition (MDA-MB-231 [5]): Active | Activity (HCT-116 [6]): Active | inhibition [7]: inactive | IC50 [8]: 134 nM | IC50 [9]: 82 nM | inhibition [10]: Active | inhibition [11]: inactive | inhibition [12]: Active | inhibition [13]: Active | inhibition (HCT-116 [14]): Active | inhibition [15]: Active | Activity (HCT-116 [16]): Dose-Dependent Effect | Activity (Cell membrane): Dose-Dependent Effect | inhibition [17]: Active | IC50 (MDA-MB-231 [18]): 2310 nM | inhibition [19]: Active | Kd [20]: 180 nM | inhibition [21]: Active | inhibition (A549 [22]): Active | inhibition [23]: inactive | inhibition [24]: Active | IC50 (HCT-116 [25]): 1860 nM | Activity (A549 [26]): Active | IC50 (BT-549): 3.97 µM
